Measured values: patent publication US20030087316A1, “Diagnostic markers of liver dysfunction” (priority 2001, published 2003)

Key:
C1s = target: T1, C1s (Homo sapiens, UniProt P09871); test: Peptidase (amidolytic) activity of purified C1s, chromogenic substrate, 96-well plate, OD 405 nm; format: biochemical; details: Table 2; C1s 100 nM, substrate S2288; 60 min at 4° C. with LBTI 1 mg/ml, SBTI I mg/ml, aprotinin 0.075 mg/ml, benzamidine 50 mM or Futhan 0.1 mg/ml; % of total activity without inhibitor; read-out: % Residual activity, C1s
T1 construct: purchased Advanced Research Technologies (San Diego, Calif.)
T1 sequence (P09871 438-688 limits assumed): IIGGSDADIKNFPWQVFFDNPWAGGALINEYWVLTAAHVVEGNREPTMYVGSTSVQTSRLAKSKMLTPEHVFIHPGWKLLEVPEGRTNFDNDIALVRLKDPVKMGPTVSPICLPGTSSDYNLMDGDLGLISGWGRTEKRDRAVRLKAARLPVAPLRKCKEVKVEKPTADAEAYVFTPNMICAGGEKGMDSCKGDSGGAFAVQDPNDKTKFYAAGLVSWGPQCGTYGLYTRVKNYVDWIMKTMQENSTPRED
T1 sequence (P09871 16-437 partner limits assumed): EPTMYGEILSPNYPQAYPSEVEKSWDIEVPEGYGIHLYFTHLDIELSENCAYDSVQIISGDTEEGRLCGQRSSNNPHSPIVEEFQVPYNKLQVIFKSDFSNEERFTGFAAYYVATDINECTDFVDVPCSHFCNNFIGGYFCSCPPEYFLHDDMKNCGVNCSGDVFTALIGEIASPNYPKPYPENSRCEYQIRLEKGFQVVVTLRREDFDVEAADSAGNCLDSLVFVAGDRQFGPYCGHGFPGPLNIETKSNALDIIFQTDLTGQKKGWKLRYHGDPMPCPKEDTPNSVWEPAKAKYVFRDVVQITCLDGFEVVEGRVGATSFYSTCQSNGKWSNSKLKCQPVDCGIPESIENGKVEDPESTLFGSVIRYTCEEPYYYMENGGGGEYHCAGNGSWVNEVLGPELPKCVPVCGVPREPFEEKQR
Procedure: (§1) The peptidase activity in plasma samples or of the purified enzymes were routinely determined at 37° C. in a 96-well plate. Each well contained 0.5 mM substrate in 100 μl of Tris-buffered saline (TBS)-EDTA buffer (50 mM Tris/150 mM NaCl/10 mM EDTA, pH 7.8) and the reaction was monitored using a microplate reader (Titertek Multiscan, Labsystems, Needham Heights, Mass.).
(§2) The enzymes C1s (100 nM), plasm in (100 nM), thrombin (100 nM), plasma kallikrein (20 nM), β-FXIIa (100 nM), trypsin (16 nM) or LTR EDTA plasma samples were incubated for 60 min at 4° C. with TBS-EDTA buffer containing either LBTI (1 mg/ml), SBTI (I mg/ml), aprotinin (0.075 mg/ml), benzamidine (50 mM), or Futhan (0.1 mg/ml), before mixing with the substrate. EDTA plasma samples from LTR were diluted 10 or 20-fold with TBS-EDTA. The chromogenic substrate AGLTR-pNA was used for all enzymes and LTR samples except C1s where the substrate S2288 was used. Based on the initial rate of increase in OD at 405 nm, the residual free enzyme level was calculated and expressed as a percentage of total activity without inhibitor added.
(§3) Ten-fold diluted normal EDTA plasma was added to each enzyme. The enzymes C1s (100 nM), plasmin (100 nM), thrombin (100 nM), plasma kallikrein (20 nM), β-FXIIa (100 nM), trypsin (16 nM) or LTR EDTA plasma samples were incubated for 60 min at 4° C. with TBS-EDTA buffer containing either C1INH (40 μg/ml), bdellin (50 μg/ml), hirudin (50 U/ml), PPACK 11(10 μM), or CTI (100 μg/ml), before adding the substrate. LTR samples were 10 or 20-fold diluted with TBS-EDTA. The chromogenic substrate AGLTR-pNA was used for all enzymes and LTP samples except C1s where the substrate S2288 was used. Based on the initial rate of increase in OD at 405 nm, the residual free enzyme was calculated and expressed as a percentage of total activity determined without inhibitor added.

plasmin = target: T2, plasmin (Homo sapiens, UniProt P00747); test: Peptidase (amidolytic) activity of purified plasmin, chromogenic substrate, OD 405 nm; format: biochemical; details: Table 2; plasmin 100 nM, substrate AGLTR-pNA; 60 min at 4° C. with LBTI 1 mg/ml, SBTI I mg/ml, aprotinin 0.075 mg/ml, benzamidine 50 mM or Futhan 0.1 mg/ml; read-out: % Residual activity, Plasmin
T2 construct: purchased Calbiochem-Novabiochem Corp (La Jolla, Calif.)
Procedure: as §1, §2, §3

thrombin = target: T3, thrombin (Homo sapiens, UniProt P00734); test: Peptidase (amidolytic) activity of purified thrombin, chromogenic substrate, OD 405 nm; format: biochemical; details: Table 2; thrombin 100 nM, substrate AGLTR-pNA; 60 min at 4° C. with LBTI 1 mg/ml, SBTI I mg/ml, aprotinin 0.075 mg/ml, benzamidine 50 mM or Futhan 0.1 mg/ml; read-out: % Residual activity, Thrombin
T3 construct: purchased Calbiochem-Novabiochem Corp (La Jolla, Calif.)

plasma kallikrein = target: T4, plasma kallikrein (Homo sapiens, UniProt P03952); test: Peptidase (amidolytic) activity of purified plasma kallikrein, chromogenic substrate, OD 405 nm; format: biochemical; details: Table 2; plasma kallikrein 20 nM, substrate AGLTR-pNA; 60 min at 4° C. with LBTI 1 mg/ml, SBTI I mg/ml, aprotinin 0.075 mg/ml, benzamidine 50 mM or Futhan 0.1 mg/ml; read-out: % Residual activity, Plasma Kallikrein
T4 construct: The light chain of kallikrein contains the enzymatic domain; purchased Calbiochem-Novabiochem Corp (La Jolla, Calif.)
Procedure: as §1
(§4) […] EDTA plasma samples from LTR were diluted 10 or 20-fold with TBS-EDTA. The chromogenic substrate AGLTR-pNA was used for all enzymes and LTR samples except C1s where the substrate S2288 was used. Based on the initial rate of increase in OD at 405 nm, the residual free enzyme level was calculated and expressed as a percentage of total activity without inhibitor added.
(§5) Ten-fold diluted normal EDTA plasma was added to each enzyme. […] LTR samples were 10 or 20-fold diluted with TBS-EDTA. The chromogenic substrate AGLTR-pNA was used for all enzymes and LTP samples except C1s where the substrate S2288 was used. Based on the initial rate of increase in OD at 405 nm, the residual free enzyme was calculated and expressed as a percentage of total activity determined without inhibitor added.

β-Factor XIIa (β-FXIIa) = target: T5, β-Factor XIIa (β-FXIIa) (Homo sapiens, UniProt P00748); test: Peptidase (amidolytic) activity of purified β-FXIIa, chromogenic substrate, OD 405 nm; format: biochemical; details: Table 2; β-FXIIa 100 nM, substrate AGLTR-pNA; 60 min at 4° C. with LBTI 1 mg/ml, SBTI I mg/ml, aprotinin 0.075 mg/ml, benzamidine 50 mM or Futhan 0.1 mg/ml; read-out: % Residual activity, β-FXIIa
T5 construct: β-Factor XIIa (β-FXIIa) was kindly provided by Dr. Mary J. Heeb; gift of Dr. Mary J. Heeb, The Scripps Research Institute
Procedure: as §1, §4, §5

trypsin = test: Peptidase (amidolytic) activity of purified trypsin, chromogenic substrate, OD 405 nm; format: biochemical; details: Table 2; trypsin 16 nM, substrate AGLTR-pNA; 60 min at 4° C. with LBTI 1 mg/ml, SBTI I mg/ml, aprotinin 0.075 mg/ml, benzamidine 50 mM or Futhan 0.1 mg/ml
Procedure: as §1, §2

[1] = system: proteinase(s) in EDTA plasma from LTR (kallikrein-like peptidase); test: Peptidase activity in EDTA plasma from liver transplant recipients (LTR), chromogenic substrate, OD 405 nm; format: biochemical, human; details: Table 2, substrate AGLTR-pNA, 60 min at 4° C. with LBTI 1 mg/ml, SBTI I mg/ml, aprotinin 0.075 mg/ml, benzamidine 50 mM or Futhan 0.1 mg/ml
Procedure: Blood samples were drawn into 5 ml EDTA tubes (Venoject; Terumo Corp., Elkton, Md.). The plasma was collected immediately by centrifugation at 2,000×g for 15 min at 4° C. The plasma samples were either processed immediately for analysis or stored at −70° C. Frozen samples were thawed at 4° C. prior to analysis.
as §1, §2, §3

[2] = system: all of the enzymes examined; test: General serine proteinase inhibitors on selected proteinases (summary over the enzymes); format: biochemical; details: Table 2; benzamidine 50 mM, Futhan 0.1 mg/ml
Procedure: as §1, §2

[3] = system: complement (three known pathways); details: defined levels of Futhan in combination with EDTA; cited from earlier work

T4 sequence (P03952 391-638 limits assumed): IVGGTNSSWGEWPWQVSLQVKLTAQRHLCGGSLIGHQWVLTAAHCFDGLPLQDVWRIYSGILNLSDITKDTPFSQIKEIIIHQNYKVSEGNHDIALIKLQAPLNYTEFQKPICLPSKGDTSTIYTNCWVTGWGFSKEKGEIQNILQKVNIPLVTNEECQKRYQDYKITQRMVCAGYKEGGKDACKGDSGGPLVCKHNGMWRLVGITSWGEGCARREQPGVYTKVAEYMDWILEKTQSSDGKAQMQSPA
T4 sequence (P03952 20-390 partner limits assumed): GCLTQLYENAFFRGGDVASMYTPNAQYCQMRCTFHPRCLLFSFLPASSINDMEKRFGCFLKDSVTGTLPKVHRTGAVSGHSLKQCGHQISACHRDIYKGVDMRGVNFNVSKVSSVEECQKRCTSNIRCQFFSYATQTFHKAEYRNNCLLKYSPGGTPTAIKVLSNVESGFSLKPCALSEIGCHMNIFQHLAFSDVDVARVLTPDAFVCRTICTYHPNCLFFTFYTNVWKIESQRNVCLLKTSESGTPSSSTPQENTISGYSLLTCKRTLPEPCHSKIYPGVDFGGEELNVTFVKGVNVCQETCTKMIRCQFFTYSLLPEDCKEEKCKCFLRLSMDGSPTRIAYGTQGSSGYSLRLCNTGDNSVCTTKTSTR
T5 sequence (P00748 373-615 limits assumed, other chains not shown): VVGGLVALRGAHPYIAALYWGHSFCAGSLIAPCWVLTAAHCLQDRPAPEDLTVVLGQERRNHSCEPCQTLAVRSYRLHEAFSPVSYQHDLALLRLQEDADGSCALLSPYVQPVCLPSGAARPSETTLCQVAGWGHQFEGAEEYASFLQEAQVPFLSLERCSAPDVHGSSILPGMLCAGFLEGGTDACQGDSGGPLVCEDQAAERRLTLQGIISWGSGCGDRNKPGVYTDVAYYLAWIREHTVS
T2 sequence (P00747 581-810 limits assumed, species assumed): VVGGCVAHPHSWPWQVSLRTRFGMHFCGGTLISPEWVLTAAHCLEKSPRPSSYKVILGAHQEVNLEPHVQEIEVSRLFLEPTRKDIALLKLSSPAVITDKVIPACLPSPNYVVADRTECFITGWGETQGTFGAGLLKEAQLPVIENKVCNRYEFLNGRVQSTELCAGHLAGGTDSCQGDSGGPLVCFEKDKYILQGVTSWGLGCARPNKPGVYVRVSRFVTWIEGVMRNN
T2 sequence (P00747 97-580 partner limits assumed, species assumed): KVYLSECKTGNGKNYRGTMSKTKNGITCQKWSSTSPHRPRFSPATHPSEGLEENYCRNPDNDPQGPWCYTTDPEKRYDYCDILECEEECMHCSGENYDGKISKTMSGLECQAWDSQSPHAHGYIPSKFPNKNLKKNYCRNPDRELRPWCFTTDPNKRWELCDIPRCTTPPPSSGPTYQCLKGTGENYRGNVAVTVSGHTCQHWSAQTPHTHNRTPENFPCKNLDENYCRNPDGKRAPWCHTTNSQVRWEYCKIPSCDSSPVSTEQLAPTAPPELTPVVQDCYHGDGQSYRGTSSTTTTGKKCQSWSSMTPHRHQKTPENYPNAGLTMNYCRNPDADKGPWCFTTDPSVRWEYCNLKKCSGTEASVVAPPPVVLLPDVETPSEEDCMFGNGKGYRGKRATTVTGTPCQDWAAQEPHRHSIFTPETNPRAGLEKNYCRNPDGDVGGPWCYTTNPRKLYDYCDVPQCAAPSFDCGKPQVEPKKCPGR

In the case of `N=C(N)c1ccc2cc(OC(=O)c3ccc(N=C(N)N)cc3)ccc2c1` [Futhan, nafamostat mesilate], the remaining activity at 100 µg/mL (C1s) is reported as 4.6%, the remaining activity at 100 µg/mL (plasmin) is reported as -1.5% and the remaining activity at 100 µg/mL (thrombin) is reported as 0.8%. For the same compound, the remaining activity at 100 µg/mL (plasma kallikrein) was 1.1%, the remaining activity at 100 µg/mL (β-Factor XIIa (β-FXIIa)) was 3.8% and the “% Residual activity, Trypsin” value (trypsin) was −0.5%. The “% Residual activity, LTR 1” value ([1]; LTR 1 EDTA plasma diluted 10 or 20-fold) was −0.7%, the “% Residual activity, LTR 2” value ([1]; LTR 2 EDTA plasma diluted 10 or 20-fold) was 0.2% and the “% Residual activity, LTR 3” value ([1]; LTR 3 EDTA plasma diluted 10 or 20-fold) was −1.1%. The “Inhibition of all of the enzymes examined, in words” value [2] was “very efficient inhibitors for all of the enzymes examined” and the “Prevention of in vitro activation of complement in plasma samples, in words” value [3] was “can prevent the in vitro activation of complement by any of the three known pathways”.
